Columns and labels:
human A2A receptors = human A2A receptors (Homo sapiens (Human), UniProt P29274); assay: A2A antagonism in cAMP cell-based assay (LANCE cAMP, HEK293); conditions: HEK293 cells expressing human A2A receptor
Experimental: (§1) Measurement of A2A and A2B Antagonism in cAMP Cell-Based Assay
(§2) The ability of compounds to antagonize human A2A and A2B adenosine receptors was determined using a kit to measure changes in intracellular cyclic AMP levels (LANCE cAMP 384 Kit, Perkin Elmer, Cat. No. AD0264). HEK293 cells recombinantly expressing either human A2A or A2B receptors, previously frozen in Recovery Medium (Life Technologies, Cat. No. 12648-010) were thawed and diluted into stimulation buffer (HBSS (Hyclone SH 30268.01), 5 mM HEPES (Gibco 15630-106), 200 nM rolipram (Tocris, Cat. No. 0905), and 1.5% (V/v) BSA stabilizer (kit component). The cell suspension was centrifuged at 200×g for 10 min and then resuspended in stimulation buffer, supplemented with a 1:10 000 dilution of Alexa Fluor 647 anti-cAMP antibody, to a density of 6.0×10^5 cells/mL. A Labcyte Echo 550 acoustic dispenser was used to transfer up to 25 nL of test compound dissolved in DMSO into the wells of a dry Optiplate-384 plate (Perkin Elmer, Cat. No. 6008289). All subsequent liquid additions were performed using a multichannel pipettor. Next, 5 μL of the cell suspension was added to the wells of the Optiplate-384 and incubated for 30 min. at 37° C. and 5% CO2 in a humidified environment. After this time 5 μL of either 300 nM or 600 nM adenosine (Sigma Cat. No. A9251) for A2A and A2B respectively was added and incubated for 30 minutes at 37° C. and 5% CO2 in a humidified environment. At this time detection mix was prepared by combining the LANCE Eu-W8044 labeled streptavidin and Biotin-cAMP in detection buffer according to the manufacturers protocol. 10 μL of the detection mix was added to each well of the Optiplate-384 which was covered with a plate seal and incubated under ambient conditions for 2 hours prior to reading the plate using an Envision (Perkin Elmer, Waltham, Mass.) multimode plate reader. Data was normalized by defining minimal effect as stimulation in the presence of 0.25% (v/v) DMSO and maximal effect as stimulation in the presence of 1 μM ZM241385 (Cayman, Cat. No. 1036). Curve fitting of the percent effect data versus the log of compound concentration used a 4-parameter concentration response curve fitting algorithm to calculate IC50 values. Compound concentrations tested were 10,000, 3,333, 1,111, 370.4, 123.4, 41.2, 13.7, 4.6, 1.5 and 0.5 nM with 0.25% residual DMSO.

human A2B receptors = human A2B receptors (Homo sapiens (Human), UniProt P29275); assay: A2B antagonism in cAMP cell-based assay (LANCE cAMP, HEK293); conditions: HEK293 cells expressing human A2B receptor
Experimental: as §1, §2

human A2B receptors, sequence (P29275 whole entry): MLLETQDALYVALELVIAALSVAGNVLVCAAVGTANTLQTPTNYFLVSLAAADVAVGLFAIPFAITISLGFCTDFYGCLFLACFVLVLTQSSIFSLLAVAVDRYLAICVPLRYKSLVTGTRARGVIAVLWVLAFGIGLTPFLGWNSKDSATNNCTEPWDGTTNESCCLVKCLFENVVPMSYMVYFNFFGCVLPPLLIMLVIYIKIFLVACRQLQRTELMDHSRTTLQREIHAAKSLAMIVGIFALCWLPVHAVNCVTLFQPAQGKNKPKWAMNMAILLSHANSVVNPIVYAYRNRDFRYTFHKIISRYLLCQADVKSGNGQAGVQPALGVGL
human A2A receptors, sequence (P29274 whole entry): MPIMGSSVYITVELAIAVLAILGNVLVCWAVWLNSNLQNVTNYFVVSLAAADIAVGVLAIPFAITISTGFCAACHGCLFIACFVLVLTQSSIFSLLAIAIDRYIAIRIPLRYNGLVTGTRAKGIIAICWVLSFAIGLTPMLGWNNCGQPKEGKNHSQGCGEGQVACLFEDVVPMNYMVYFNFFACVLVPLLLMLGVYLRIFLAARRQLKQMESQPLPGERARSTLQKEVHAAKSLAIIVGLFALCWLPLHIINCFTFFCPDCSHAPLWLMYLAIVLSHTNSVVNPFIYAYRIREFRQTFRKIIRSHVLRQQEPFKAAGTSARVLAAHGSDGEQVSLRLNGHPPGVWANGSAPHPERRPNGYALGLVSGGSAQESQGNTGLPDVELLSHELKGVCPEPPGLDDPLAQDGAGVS

SMILES	IC50 (human A2A receptors)	IC50 (human A2B receptors)
CC1CC(c2nc3c4cc(F)cc(F)c4nc(N)n3n2)CN(c2cnn(C(C)(C)CO)c2)C1 (single isomer, unassigned) [Example 180, 2-(4-((3R,5R or 3S,5S)-3-(5-amino-7,9-difluoro-[1,2,4]triazolo[1,5-c]quinazolin-2-yl)-5-methylpiperidin-1-yl)-1H-pyrazol-1-yl)-2-methylpropan-1-ol]	54 nM	5340 nM
CC1CC(c2nc3c4cc(F)cc(F)c4nc(N)n3n2)CN(c2cnn(CC(C)(C)O)c2)C1 (single isomer, unassigned) [Example 181, 1-(4-((3S,5S or 3R,5R)-3-(5-amino-7,9-difluoro-[1,2,4]triazolo[1,5-c]quinazolin-2-yl)-5-methylpiperidin-1-yl)-1H-pyrazol-1-yl)-2-methylpropan-2-ol]	16 nM	5100 nM
CC1CC(c2nc3c4cc(F)cc(F)c4nc(N)n3n2)CN(c2cnn(CC(C)(C)O)c2)C1 (single isomer, unassigned) [Example 182, 1-(4-((3R,5R or 3S,5S)-3-(5-amino-7,9-difluoro-[1,2,4]triazolo[1,5-c]quinazolin-2-yl)-5-methylpiperidin-1-yl)-1H-pyrazol-1-yl)-2-methylpropan-2-ol]	362 nM	> 10000 nM
CCC(C)(O)Cn1cc(N2CCC[C@@H](c3nc4c5cc(F)c(OC)cc5nc(N)n4n3)C2)cn1 (single isomer, unassigned) [Example 183, (R or S)-1-(4-((R)-3-(5-amino-9-fluoro-8-methoxy-[1,2,4]triazolo[1,5-c]quinazolin-2-yl)piperidin-1-yl)-1H-pyrazol-1-yl)-2-methylbutan-2-ol]	2 nM	90.6 nM
CCC(C)(O)Cn1cc(N2CCC[C@@H](c3nc4c5cc(F)c(OC)cc5nc(N)n4n3)C2)cn1 (single isomer, unassigned) [Example 184, (S or R)-1-(4-((R)-3-(5-amino-9-fluoro-8-methoxy-[1,2,4]triazolo[1,5-c]quinazolin-2-yl)piperidin-1-yl)-1H-pyrazol-1-yl)-2-methylbutan-2-ol]	4.9 nM	346 nM
COc1cc(F)cc2c1nc(N)n1nc([C@@H]3CCCN(c4cnn(C(C)C(C)O)c4)C3)nc21 (single isomer, unassigned) [Example 185, (2S,3S or 2R,3R)-3-(4-((R)-3-(5-amino-9-fluoro-7-methoxy-[1,2,4]triazolo[1,5-c]quinazolin-2-yl)piperidin-1-yl)-1H-pyrazol-1-yl)butan-2-ol]	1.1 nM	49.8 nM
COc1cc(F)cc2c1nc(N)n1nc([C@@H]3CCCN(c4cnn(C(C)C(C)O)c4)C3)nc21 (single isomer, unassigned) [Example 186, (2R,3R or 2S,3S)-3-(4-((R)-3-(5-amino-9-fluoro-7-methoxy-[1,2,4]triazolo[1,5-c]quinazolin-2-yl)piperidin-1-yl)-1H-pyrazol-1-yl)butan-2-ol]	1 nM	25.8 nM
COc1cc2nc(N)n3nc([C@@H]4CCCN(c5cnn(C(C)C(C)O)c5)C4)nc3c2cc1F (single isomer, unassigned) [Example 187, (2S,3S or 2R,3R)-3-(4-((R)-3-(5-amino-9-fluoro-8-methoxy-[1,2,4]triazolo[1,5-c]quinazolin-2-yl)piperidin-1-yl)-1H-pyrazol-1-yl)butan-2-ol]	2.6 nM	95.8 nM
COc1cc2nc(N)n3nc([C@@H]4CCCN(c5cnn(C(C)C(C)O)c5)C4)nc3c2cc1F (single isomer, unassigned) [Example 188, (2R,3R or 2S,3S)-3-(4-((R)-3-(5-amino-9-fluoro-8-methoxy-[1,2,4]triazolo[1,5-c]quinazolin-2-yl)piperidin-1-yl)-1H-pyrazol-1-yl)butan-2-ol]	1.5 nM	53.1 nM
COc1cc(F)cc2c1nc(N)n1nc([C@@H]3CCCN(c4cn(C(C)C(C)O)nc4C)C3)nc21 (single isomer, unassigned) [Example 189, (2S,3S or 2R,3R)-3-(4-((R)-3-(5-amino-9-fluoro-7-methoxy-[1,2,4]triazolo[1,5-c]quinazolin-2-yl)piperidin-1-yl)-3-methyl-1H-pyrazol-1-yl)butan-2-ol]	0.5 nM	53.4 nM
COc1cc(F)cc2c1nc(N)n1nc([C@@H]3CCCN(c4cn(C(C)C(C)O)nc4C)C3)nc21 (single isomer, unassigned) [Example 190]	0.8 nM	55.9 nM
Cc1nn(C(C)C(C)O)cc1N1CCC[C@@H](c2nc3c4cc(F)cc(F)c4nc(N)n3n2)C1 (single isomer, unassigned) [Example 191, (2S,3S or 2R,3R)-3-(4-((R)-3-(5-amino-7,9-difluoro-[1,2,4]triazolo[1,5-c]quinazolin-2-yl)piperidin-1-yl)-3-methyl-1H-pyrazol-1-yl)butan-2-ol]	0.9 nM	92.4 nM

Second part, the molecule after the results:

IC50 (human A2A receptors)	IC50 (human A2B receptors)	SMILES
0.8 nM	72.4 nM	Cc1nn(C(C)C(C)O)cc1N1CCC[C@@H](c2nc3c4cc(F)cc(F)c4nc(N)n3n2)C1 (single isomer, unassigned) [Example 192, (2R,3R or 2S,3S)-3-(4-((R)-3-(5-amino-7,9-difluoro-[1,2,4]triazolo[1,5-c]quinazolin-2-yl)piperidin-1-yl)-3-methyl-1H-pyrazol-1-yl)butan-2-ol]
1.3 nM	251 nM	COc1cc(F)cc2c1nc(N)n1nc([C@@H]3CCCN(c4cnn(C(C)C(C)O)c4C)C3)nc21 (single isomer, unassigned) [Example 193, (2S,3S or 2R,3R)-3-(4-((R)-3-(5-amino-9-fluoro-7-methoxy-[1,2,4]triazolo[1,5-c]quinazolin-2-yl)piperidin-1-yl)-5-methyl-1H-pyrazol-1-yl)butan-2-ol]
1.7 nM	318 nM	COc1cc(F)cc2c1nc(N)n1nc([C@@H]3CCCN(c4cnn(C(C)C(C)O)c4C)C3)nc21 (single isomer, unassigned) [Example 194, (2R,3R or 2S,3S)-3-(4-((R)-3-(5-amino-9-fluoro-7-methoxy-[1,2,4]triazolo[1,5-c]quinazolin-2-yl)piperidin-1-yl)-5-methyl-1H-pyrazol-1-yl)butan-2-ol]
3.4 nM	389 nM	COc1cc2nc(N)n3nc([C@@H]4CCCN(c5cnn(C(C)C(C)O)c5C)C4)nc3c2cc1F (single isomer, unassigned) [Example 195, (2S,3S or 2R,3R)-3-(4-((R)-3-(5-amino-9-fluoro-8-methoxy-[1,2,4]triazolo[1,5-c]quinazolin-2-yl)piperidin-1-yl)-5-methyl-1H-pyrazol-1-yl)butan-2-ol]
3.7 nM	475 nM	COc1cc2nc(N)n3nc([C@@H]4CCCN(c5cnn(C(C)C(C)O)c5C)C4)nc3c2cc1F (single isomer, unassigned) [Example 196, (2R,3R or 2S,3S)-3-(4-((R)-3-(5-amino-9-fluoro-8-methoxy-[1,2,4]triazolo[1,5-c]quinazolin-2-yl)piperidin-1-yl)-5-methyl-1H-pyrazol-1-yl)butan-2-ol]
6.4 nM	93 nM	CC(O)C(C)n1cc(N2CCC[C@@H](c3nc4c5cc(F)cc(F)c5nc(N)n4n3)C2)cn1 (single isomer, unassigned) [Example 197, (2S,3S or 2R,3R)-3-(4-((R)-3-(5-amino-7,9-difluoro-[1,2,4]triazolo[1,5-c]quinazolin-2-yl)piperidin-1-yl)-1H-pyrazol-1-yl)butan-2-ol]

Reference: patent US11312719B2, “9-substituted amino triazolo quinazoline derivatives as adenosine receptor antagonists, pharmaceutical compositions and their use” (Merck Sharp & Dohme Corp., priority 2018, dated 2022)
